Test results as given in patent US11873298B2, “Compounds and uses thereof” (JANSSEN PHARMACEUTICA NV, priority 2017, dated 2024).

What was measured:
SCD1 = target: T1, SCD1 (Homo sapiens, UniProt O00767); experiment: Growth inhibition of humanized yeast strain expressing SCD1 as sole desaturase; assay type: cell-based
T1 construct: host or cells: S. cerevisiae ole1Δ strain (W303 pdr1Δ pdr3Δ background), plasmid pRS316 with TDH3 promoter and CYC1 terminator
T1 sequence (O00767 1-359): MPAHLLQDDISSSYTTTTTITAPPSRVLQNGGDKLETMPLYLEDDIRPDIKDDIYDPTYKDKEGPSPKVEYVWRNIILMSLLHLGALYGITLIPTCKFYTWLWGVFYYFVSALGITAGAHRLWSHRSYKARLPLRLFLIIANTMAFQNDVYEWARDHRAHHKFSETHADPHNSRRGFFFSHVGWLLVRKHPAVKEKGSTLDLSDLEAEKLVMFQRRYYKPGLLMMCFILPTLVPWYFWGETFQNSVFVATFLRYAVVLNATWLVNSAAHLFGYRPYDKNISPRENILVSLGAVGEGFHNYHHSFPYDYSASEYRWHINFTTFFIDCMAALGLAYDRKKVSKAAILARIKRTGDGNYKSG
How it was run: (§1)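 Measured by optical density at 600 nm, growth of desaturase-dependent yeast (OLE1 deleted; human SCD1, human SCD5 or yeast Ole1 supplied from plasmid) was scored after 24 h (Ole1) or 40 h (SCD1, SCD5) at 30° C. in galactose media lacking uracil with DMSO-delivered compound.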

SCD5 = target: T2, SCD5 (Homo sapiens, UniProt Q86SK9); experiment: Growth inhibition of humanized yeast strain expressing SCD5 as sole desaturase; assay type: cell-based
T2 construct: host or cells: S. cerevisiae ole1Δ strain (W303 pdr1Δ pdr3Δ background), plasmid pRS316 with TDH3 promoter and CYC1 terminator
T2 sequence (Q86SK9 1-330): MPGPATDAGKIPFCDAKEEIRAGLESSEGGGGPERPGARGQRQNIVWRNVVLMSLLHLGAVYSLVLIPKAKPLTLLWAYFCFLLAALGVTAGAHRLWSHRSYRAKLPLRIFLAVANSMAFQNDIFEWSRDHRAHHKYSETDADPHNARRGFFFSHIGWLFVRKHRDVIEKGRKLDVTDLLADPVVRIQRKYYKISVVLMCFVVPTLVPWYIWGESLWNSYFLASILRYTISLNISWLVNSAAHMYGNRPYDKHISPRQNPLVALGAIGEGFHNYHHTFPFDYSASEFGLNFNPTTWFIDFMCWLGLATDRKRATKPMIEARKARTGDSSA
How it was run: as §1

[1] = humanized yeast strain expressing SCD1
[2] = humanized yeast strain expressing SCD5
[3] = growth inhibition of humanized yeast strain expressing human SCD1
[4] = growth inhibition of humanized yeast strain expressing human SCD5

SMILES	IC50 (SCD1; humanized yeast strain, 40 h) [µM]	IC50 (SCD5; humanized yeast strain, 40 h) [µM]	further results
CC1(OC(=O)N2CCC(c3nnc(-c4ccc5cnn(C6COC6)c5c4)o3)CC2)CC1 [Compound 980]	> 45	0.877	
CC(N1CCC(c2nc(-c3ccc4cnn(C5COC5)c4c3)no2)CC1)C(F)(F)F (stereo not shown) [Compound 1091]	> 45	3.62	
CC(C)(C)OC(=O)N1C[C@@H]2[C@H](C1)[C@H]2C(=O)NCc1cccc(C#N)c1 [Compound 772]	> 45	> 45	
O=C(CC1CC1)N1CCC(c2noc(-c3ccc4cnn(C5CCOC5)c4c3)n2)CC1 (stereo not shown) [Compound 974]	> 45	0.01	
CN1CC2CN(c3nc(-c4ccc5cnn(C6COC6)c5c4)no3)CCN2C1=O (stereo not shown) [Compound 1142]	> 45	> 45	
CC1(OC(=O)N2CCC(c3nnc(-c4ccc5cnn(C6COC6)c5c4)o3)CC2)CCC1 [Compound 981]	> 45	0.045	
Cc1nn(C)c2cc(-c3noc(C4CCN(C(=O)CNC(=O)OC(C)(C)C)CC4(F)F)n3)ccc12 (stereo not shown) [Compound 527]			IC50 (SCD1; [1]): 0.958 µM; IC50 (SCD5; [2]): 1.46 µM
CC(C)(C)OC(=O)N1CCC(c2nc(-c3ccc4cnn(C5CCOC5)c4c3)no2)CC1 (stereo not shown) [Compound 650]			IC50 (SCD1; [3]): 4.36 µM; IC50 (SCD5; [4]): 0.013 µM
CC(C)(C)OC(=O)N1CCC(c2noc(-c3cc(F)cc(N4CCOCC4)c3)n2)CC1 [Compound 1086]	> 45	0.019	
COC(=O)N1CCC(c2nc(-c3ccc4cn[nH]c4c3)no2)CC1 [Compound 936]	> 45	3.45	
CC(C)C(=O)N1CCN(c2noc(-c3ccnc(Cl)c3)n2)CC1 [Compound 1119]	> 45	> 45	
CC(C)n1ncc2ccc(-c3noc(N4C[C@@H]5CN(C(=O)OC(C)(C)C)C[C@H]5C4)n3)cc21 [Compound 513]			IC50 (SCD1; [1]): > 45 µM; IC50 (SCD5; [2]): > 45 µM
CC(C)(C)OC(=O)N1CCC(c2nc(-c3ccc4cnn(C5CNC5)c4c3)no2)CC1 [Compound 728]			IC50 (SCD1; [3]): > 45 µM; IC50 (SCD5; [4]): 0.126 µM
O=C(C1CC12CC2)N1CCN(c2nnc(-c3ccc4cnn(C5COC5)c4c3)o2)CC1 (stereo not shown) [Compound 991]	> 45	> 45	
CC(C)n1ncc2ccc(-c3noc(C4CCN(C(=O)CNC(=O)c5ccccc5)CC4(F)F)n3)cc21 (stereo not shown) [Compound 679]			IC50 (SCD1; [3]): > 45 µM; IC50 (SCD5; [4]): > 45 µM
Cc1nn(C)c2cc(-c3noc(C4CCN(C(=O)CNC(=O)c5ccc(Cl)cc5)CC4(F)F)n3)ccc12 (stereo not shown) [Compound 554]			IC50 (SCD1; [1]): 4.08 µM; IC50 (SCD5; [2]): 1.07 µM
O=C(N1CCC(c2noc(-c3cnc4cnn(C5COC5)c4c3)n2)CC1)C1(F)CC1 [Compound 1140]	> 45	0.0613	
CC1(OC(=O)N2CCC(c3nc(-c4ccc5cnn(C6(C)COC6)c5c4)no3)CC2)CC1 [Compound 816]	> 45	7.19	
COC(=O)N1CCC(c2noc(-c3ccc4cn(C5CCN(C)C5=O)nc4c3)n2)CC1 (stereo not shown) [Compound 1102]	> 45	> 45	
O=C(C1CCC1)N1CCN(c2noc(-c3ccc4cnn(C5COC5)c4c3)n2)CC1 [Compound 838]	> 45	0.021	
c1cc2cnn(C3COC3)c2cc1-c1nc(C2CCCNCC2)no1 (stereo not shown) [Compound 863]	> 45	> 45	
CC(C)(C)OC(=O)N1CC(c2nc(-c3ccc4cn(C5COC5)nc4c3)no2)C1 [Compound 708]			IC50 (SCD1; [3]): > 45 µM; IC50 (SCD5; [4]): > 45 µM
CC(C)n1ncc2ccc(-c3nc(C4CN(C(=O)CC(C)(C)C)C4)no3)cc21 [Compound 606]			IC50 (SCD1; [3]): > 45 µM; IC50 (SCD5; [4]): 0.737 µM
CCC(=O)N1CCN(c2noc(-c3ccc4cnn(C5COC5)c4c3)n2)CC1 [Compound 841]	> 45	0.209	

SMILES	IC50 (SCD1; humanized yeast strain, 40 h) [µM]	IC50 (SCD5; humanized yeast strain, 40 h) [µM]	further results
Cc1nn(C)c2cc(-c3noc(C4CCN(C(=O)CN)CC4(F)F)n3)ccc12 (stereo not shown) [Compound 665]			IC50 (SCD1; [3]): > 45 µM; IC50 (SCD5; [4]): 5.01 µM
CC(C)(C)OC(=O)N1CCC(c2noc(-c3cccc(C4CCO4)c3)n2)CC1 (stereo not shown) [Compound 1152]	> 45	0.01	
Cc1nnc(N2CCC(c3nc(-c4ccc5cnn(C(C)C)c5c4)no3)CC2)o1 [Compound 704]			IC50 (SCD1; [3]): > 45 µM; IC50 (SCD5; [4]): 1.68 µM
CC(C)(C)OC(=O)N1CC2(C1)CN(c1noc(-c3ccc4cnn(C5COC5)c4c3)n1)C2 [Compound 1074]	5.43	1.96	
CC(C)c1ncn2ccc(-c3nc(C4CCN(C(=O)OC(C)(C)C)CC4)no3)cc12 [Compound 1040]	> 45	0.791	
COC(=O)N1CCC(c2noc(-c3ccc4cnn(C5COC5)c4c3F)n2)CC1 [Compound 1004]	> 45	0.297	
CC1(OC(=O)N2CCC(c3noc(N4CCc5c(cnn5C5COC5)C4)n3)CC2)CC1 [Compound 1193]	> 45	> 45	
CC(C)(C)OC(=O)N1CCC(c2nc(-c3ccc4cn(C5CC(=O)C5)nc4c3)no2)CC1 [Compound 786]	> 45	> 45	
COC(=O)N1CC2(CC(c3noc(-c4ccc5cnn(C6COC6)c5c4)n3)C2)C1 [Compound 1032]	> 45	4.1	
O=C(C1CC1)N1CCC(c2noc(-c3ccnc(Cl)c3)n2)CC1 [Compound 1123]	> 45	6.64	
CCC(=O)N1CCC(c2noc(-c3ccc4cnn(C5COC5)c4c3)n2)CC1 [Compound 891]	> 45	0.01	
CC(C)(C)OC(=O)N1CCC(c2noc(-c3cc(C4CCOC4)ccn3)n2)CC1 (stereo not shown) [Compound 1192]	> 45	0.04	
CC(C)(C)OC(=O)N1CCC(c2noc(N3CCc4c(cnn4C4COC4)C3)n2)CC1 [Compound 1173]	≥ 45	23.4	
Fc1c(-c2nc(C3CCNCC3)no2)ccc2cnn(C3COC3)c12 [Compound 989]	> 45	> 45	
CC(C)n1ncc2ccc(-c3noc(C4CCNCC4(F)F)n3)cc21 (stereo not shown) [Compound 508]			IC50 (SCD1; [1]): > 45 µM; IC50 (SCD5; [2]): > 45 µM
CC(C)(C)OC(=O)N1CCC(c2noc(-c3ccnc(OC4COC4)c3)n2)CC1 [Compound 982]	0.01	0.327	
CCOC(=O)N1CCN(c2nc(-c3ccc4cnn(C(C)C)c4c3)no2)CC1 [Compound 668]			IC50 (SCD1; [3]): > 45 µM; IC50 (SCD5; [4]): 0.719 µM
CC(C)c1noc2ccc(-c3noc(C4CCN(C(=O)OC(C)(C)C)CC4)n3)cc12 [Compound 639]			IC50 (SCD1; [3]): > 45 µM; IC50 (SCD5; [4]): 4.79 µM
O=C(N1CCC(c2noc(-c3ccc4cnn(C5COC5)c4c3)n2)CC1)C1(F)CC1 [Compound 952]	15.6	9.22	
COC(=O)N1CCC(c2noc(-c3ccnc(CC4CC4)c3)n2)CC1 [Compound 1081]	> 45	2.43	
Cc1nn(C)c2cc(-c3noc(C4CN(C(=O)OC(C)(C)C)C4)n3)ccc12 [Compound 365]			SCD1 % Max Inhibition (SCD1; [1]): 58.08%; IC50 (SCD5; [2]): > 45 µM; SCD5 % Max Inhibition (SCD5; [2]): 23.74%
CC(C)(C)OC(=O)N1CCC(c2nc(-c3ccc4cn(C5CCC5)nc4c3)no2)CC1 [Compound 731]			IC50 (SCD1; [3]): > 45 µM; IC50 (SCD5; [4]): > 45 µM
CC(C)c1noc2ccc(-c3noc(C4CCN(C(=O)CC5(C)CC5)CC4)n3)cc12 [Compound 670]			IC50 (SCD1; [3]): > 45 µM; IC50 (SCD5; [4]): 3.79 µM
CC(C)c1noc2ccc(-c3noc(C4CCNCC4)n3)cc12 [Compound 723]			IC50 (SCD1; [3]): > 45 µM; IC50 (SCD5; [4]): > 45 µM
